Test results reported in PMC6495379, “Reiterative Synthesis by the Ribosome and Recognition of the N-Terminal Formyl Group by Biosynthetic Machinery Contribute to Evolutionary Conservation of the Length of Antibiotic Microcin C Peptide Precursor” (mBio, 2019).
* marks the point of attachment. For = O=C*

How the values were obtained:
E. coli MccB = test: In vitro adenylation of MccA peptides by MccB, HPLC read-out; assay type: biochemical, Escherichia coli; conditions: 500 μM peptide, 5 μM MccB, 28°C, 20 min, HPLC 260 nm; for Yield of adenylated peptide (unformylated peptides): ATP
Description: In previous work, it was shown that E. coli MccB is able to modify a wide range of substrates in vivo and in vitro, including MBP protein with attached A7 peptide ([14]). To test MccB activity on elongated substrates encoded by pA11 and pA15, we incubated purified MccB with ATP and chemically synthesized A11 and A15 peptides and measured adenylated peptide yields by high-pressure liquid chromatography (HPLC) (Fig. 6). […] We next repeated the experiment with N-terminally formylated versions of each peptide that correspond to the products of ribosomal synthesis. […] We conclude that under our conditions, the presence of the formyl group on the N-terminal methionine residue selectively amplified the yields of MccA heptapeptide adenylation compared to adenylation yields of longer peptides A11 and A15.
FIG 6 In vitro adenylation of MccA peptides of different lengths by MccB. HPLC traces (260 nm) showing product formation after incubation of equal molar amounts of A7 (MRTGNAN), A11 (MGGGMRTGNAN), and A15 (MASTAGGGMRTGNAN) peptides and their N-terminally formylated variant peptides (marked with the f prefix) with MccB in the reaction buffer for 20 min at 28°C.
For adenylation efficiency measurements, 500 μM peptide was incubated with 5 μM MccB at 28°C for 20 min, and then the reaction was quenched with 0,1% TFA and analyzed using C18 reversed-phase chromatography (Symmetry C18, 5 μm, 4.6 mm by 150 mm; Waters). A 0% to 15% linear gradient of acetonitrile in 0.1% TFA was applied for elution. The identities of the compounds in the chromatographic fractions were confirmed by MALDI-TOF MS.

some strains of E. coli = conditions: cited from earlier work
From the text: Thus, the minimal set of three genes in an mcc cluster, encoding the precursor peptide, the adenylating enzyme, and the export pump protein, should be sufficient for production of McC-like antibacterial compounds. Bioinformatics searches reveal that genes coding for MccB-like proteins can be found in various bacteria that are phylogenetically distant from E. coli ([10]).

[1] = formylated versus unformylated peptide

| Substance | Decrease in adenylated product yield on N-terminal formylation, compared to the unformylated peptide (E. coli MccB; [1]) [fold] | Yield of adenylated peptide (unformylated peptides) (E. coli MccB) | Increase in adenylated product yield on N-terminal formylation, compared to the unformylated peptide (E. coli MccB; [1]) | Increase in adenylated product yield on N-terminal formylation, compared to the unformylated peptide (E. coli MccB; formylated versus unformylated peptide, listed as heptapeptide MccA) [fold] | Increase of toxicity of McC by the aminopropyl moiety (some strains of E. coli) |
| --- | --- | --- | --- | --- | --- |
| MASTAGGGMRTGNAN [A15, 15-amino-acid MccA-based peptide […]] | ~3 | comparable yields | – | – | – |
| MGGGMRTGNAN [A11, 11-amino-acid MccA-based peptide […]] | – | comparable yields | ~2 fold | – | – |
| MRTGNAN [A7, 7-amino-acid McC precursor peptide MRTGNAN, chemically synthesized] | – | comparable yields | approximately 8 fold | ~10 | – |
| Microcin C (For-MRTGNAN-{adenylate (N-P bond, aminopropyl on phosphoramidate)}) [McC, heptapeptide adenylate antibiotic, formylated, with aminopropyl on the phosphoramidate] | – | – | – | – | 4- to 10 fold |
